Measurements from paper PMC8449129, “Single tracer-based protocol for broad-spectrum kinase profiling in live cells with NanoBRET” (STAR Protocols, 2021).

Columns and labels:
Test in all cases: cell-based
Set-up in all cases: NanoBRET live-cell target engagement; % occupancy from displacement of tracer K10 on NanoLuc-kinase fusions, mean n=3
Conditions in all cases: HEK293, read-out: % inhibition
TBK1 = TBK1 (Homo sapiens, UniProt Q9UHD2)
Method in brief: (§1)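 Live-cell NanoBRET target engagement: cells expressing kinase–NanoLuc fusion with tracer treated with compound 2 h at 37 °C, 5% CO2. BRET read from donor (450 nm) and acceptor (610/630 nm) emission with 20 μM extracellular NanoLuc inhibitor; % occupancy calculated relative to tracer+DMSO and zero-BRET controls.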

CHEK2 = CHEK2 (Homo sapiens, UniProt O96017)
Method in brief: as §1

CDK5 = CDK5 (Homo sapiens, UniProt Q00535)
Method in brief: as §1

CAMK2A = CAMK2A (Homo sapiens, UniProt Q9UQM7)
Method in brief: as §1

STK10 = STK10 (Homo sapiens, UniProt O94804)
Method in brief: as §1

MAP3K21 = MAP3K21 (Homo sapiens, UniProt Q5TCX8)
Method in brief: as §1

MAP3K19 = MAP3K19 (Homo sapiens, UniProt Q56UN5)
Method in brief: as §1

PLK3 = PLK3 (Homo sapiens, UniProt Q9H4B4)
Method in brief: as §1

PAK6 = PAK6 (Homo sapiens, UniProt Q9NQU5)
Method in brief: as §1

ICK = target: T1, ICK (Homo sapiens, UniProt Q9UPZ9)
T1 construct: gene CILK1
Method in brief: as §1

FLT3 = FLT3 (Homo sapiens, UniProt P36888)
Method in brief: as §1

PRKAA1 = PRKAA1 (Homo sapiens, UniProt Q13131)
Method in brief: as §1

PRKACB = PRKACB (Homo sapiens, UniProt P22694)
Method in brief: as §1

LCK = LCK (Homo sapiens, UniProt P06239)
Method in brief: as §1

CDK10 = CDK10 (Homo sapiens, UniProt Q15131)
Method in brief: as §1

TEK = TEK (Homo sapiens, UniProt Q02763)
Method in brief: as §1

ERN1 = ERN1 (Homo sapiens, UniProt O75460)
Method in brief: as §1

CSNK1D = CSNK1D (Homo sapiens, UniProt P48730)
Method in brief: as §1

MAP3K21, sequence (Q5TCX8 whole entry): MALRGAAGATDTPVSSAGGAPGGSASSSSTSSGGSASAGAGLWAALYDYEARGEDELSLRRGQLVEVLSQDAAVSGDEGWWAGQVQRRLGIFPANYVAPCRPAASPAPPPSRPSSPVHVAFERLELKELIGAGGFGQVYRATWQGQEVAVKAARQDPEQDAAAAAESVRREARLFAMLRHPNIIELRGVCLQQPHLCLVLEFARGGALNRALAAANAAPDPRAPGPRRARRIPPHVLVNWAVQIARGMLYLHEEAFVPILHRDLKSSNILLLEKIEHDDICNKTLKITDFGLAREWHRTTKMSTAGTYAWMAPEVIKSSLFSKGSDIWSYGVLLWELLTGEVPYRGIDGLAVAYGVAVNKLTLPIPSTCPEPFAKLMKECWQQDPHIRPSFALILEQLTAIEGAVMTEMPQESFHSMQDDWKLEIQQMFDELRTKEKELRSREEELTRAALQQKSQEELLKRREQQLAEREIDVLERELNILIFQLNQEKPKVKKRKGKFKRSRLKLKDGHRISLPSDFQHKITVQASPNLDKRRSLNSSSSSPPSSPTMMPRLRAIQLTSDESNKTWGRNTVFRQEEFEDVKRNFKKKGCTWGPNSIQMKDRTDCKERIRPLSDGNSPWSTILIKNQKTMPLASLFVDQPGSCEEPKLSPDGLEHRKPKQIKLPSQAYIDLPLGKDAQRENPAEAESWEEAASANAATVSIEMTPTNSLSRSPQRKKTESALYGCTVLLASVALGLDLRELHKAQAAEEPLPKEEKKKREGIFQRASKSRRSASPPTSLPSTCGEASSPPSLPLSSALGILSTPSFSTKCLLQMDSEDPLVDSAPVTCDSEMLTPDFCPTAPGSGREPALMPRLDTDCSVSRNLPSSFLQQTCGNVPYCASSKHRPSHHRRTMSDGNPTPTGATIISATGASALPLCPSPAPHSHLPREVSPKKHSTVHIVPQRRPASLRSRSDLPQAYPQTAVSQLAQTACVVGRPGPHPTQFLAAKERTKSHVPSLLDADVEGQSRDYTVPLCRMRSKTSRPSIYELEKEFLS
PAK6, sequence (Q9NQU5 whole entry): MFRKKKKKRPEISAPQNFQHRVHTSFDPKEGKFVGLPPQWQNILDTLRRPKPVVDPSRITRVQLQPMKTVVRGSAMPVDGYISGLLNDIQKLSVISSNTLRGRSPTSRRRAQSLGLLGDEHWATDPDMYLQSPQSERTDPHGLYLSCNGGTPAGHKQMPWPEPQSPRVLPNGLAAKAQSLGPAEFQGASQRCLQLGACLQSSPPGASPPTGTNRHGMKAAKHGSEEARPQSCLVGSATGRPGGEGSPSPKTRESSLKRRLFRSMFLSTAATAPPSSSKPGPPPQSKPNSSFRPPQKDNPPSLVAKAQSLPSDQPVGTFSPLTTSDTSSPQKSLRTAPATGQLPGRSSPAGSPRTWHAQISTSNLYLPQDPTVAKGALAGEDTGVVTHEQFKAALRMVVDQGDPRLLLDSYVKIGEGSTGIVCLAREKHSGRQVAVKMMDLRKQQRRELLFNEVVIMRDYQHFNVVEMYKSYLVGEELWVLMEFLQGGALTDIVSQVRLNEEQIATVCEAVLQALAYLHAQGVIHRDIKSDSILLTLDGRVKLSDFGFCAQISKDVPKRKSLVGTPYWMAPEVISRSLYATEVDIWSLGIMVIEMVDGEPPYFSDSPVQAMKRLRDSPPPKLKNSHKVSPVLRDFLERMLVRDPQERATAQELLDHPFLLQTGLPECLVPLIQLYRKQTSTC
CDK5, sequence (Q00535 whole entry): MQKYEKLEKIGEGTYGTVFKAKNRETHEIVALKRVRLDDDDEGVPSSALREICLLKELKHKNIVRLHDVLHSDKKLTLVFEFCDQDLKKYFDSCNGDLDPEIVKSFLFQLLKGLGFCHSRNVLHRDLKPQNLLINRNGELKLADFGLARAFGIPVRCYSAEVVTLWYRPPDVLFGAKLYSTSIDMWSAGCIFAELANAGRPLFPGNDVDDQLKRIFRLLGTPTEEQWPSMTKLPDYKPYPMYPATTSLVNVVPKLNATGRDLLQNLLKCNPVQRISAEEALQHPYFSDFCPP
CAMK2A, sequence (Q9UQM7 whole entry): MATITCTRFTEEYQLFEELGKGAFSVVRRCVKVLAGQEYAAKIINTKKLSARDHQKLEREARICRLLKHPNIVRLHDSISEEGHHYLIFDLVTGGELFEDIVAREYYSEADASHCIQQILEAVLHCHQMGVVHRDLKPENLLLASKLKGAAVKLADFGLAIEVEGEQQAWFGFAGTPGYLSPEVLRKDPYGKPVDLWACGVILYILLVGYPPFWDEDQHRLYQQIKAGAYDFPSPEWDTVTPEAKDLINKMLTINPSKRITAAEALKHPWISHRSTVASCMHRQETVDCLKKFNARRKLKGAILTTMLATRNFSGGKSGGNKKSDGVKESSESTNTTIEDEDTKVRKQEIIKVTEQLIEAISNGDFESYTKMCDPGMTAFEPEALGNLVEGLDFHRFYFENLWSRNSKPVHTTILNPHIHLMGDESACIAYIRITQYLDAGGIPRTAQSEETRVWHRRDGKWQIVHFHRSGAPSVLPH
CDK10, sequence (Q15131 whole entry): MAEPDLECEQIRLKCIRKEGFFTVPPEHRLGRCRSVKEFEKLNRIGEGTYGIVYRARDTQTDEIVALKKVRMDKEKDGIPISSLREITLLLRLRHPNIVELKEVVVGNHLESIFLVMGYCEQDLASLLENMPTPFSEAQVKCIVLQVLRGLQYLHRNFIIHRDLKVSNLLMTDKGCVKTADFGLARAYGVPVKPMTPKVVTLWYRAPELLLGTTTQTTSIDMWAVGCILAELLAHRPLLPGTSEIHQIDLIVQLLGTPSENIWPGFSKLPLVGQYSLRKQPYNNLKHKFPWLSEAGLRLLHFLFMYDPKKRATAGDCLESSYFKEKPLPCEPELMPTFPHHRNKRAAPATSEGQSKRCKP
STK10, sequence (O94804 whole entry): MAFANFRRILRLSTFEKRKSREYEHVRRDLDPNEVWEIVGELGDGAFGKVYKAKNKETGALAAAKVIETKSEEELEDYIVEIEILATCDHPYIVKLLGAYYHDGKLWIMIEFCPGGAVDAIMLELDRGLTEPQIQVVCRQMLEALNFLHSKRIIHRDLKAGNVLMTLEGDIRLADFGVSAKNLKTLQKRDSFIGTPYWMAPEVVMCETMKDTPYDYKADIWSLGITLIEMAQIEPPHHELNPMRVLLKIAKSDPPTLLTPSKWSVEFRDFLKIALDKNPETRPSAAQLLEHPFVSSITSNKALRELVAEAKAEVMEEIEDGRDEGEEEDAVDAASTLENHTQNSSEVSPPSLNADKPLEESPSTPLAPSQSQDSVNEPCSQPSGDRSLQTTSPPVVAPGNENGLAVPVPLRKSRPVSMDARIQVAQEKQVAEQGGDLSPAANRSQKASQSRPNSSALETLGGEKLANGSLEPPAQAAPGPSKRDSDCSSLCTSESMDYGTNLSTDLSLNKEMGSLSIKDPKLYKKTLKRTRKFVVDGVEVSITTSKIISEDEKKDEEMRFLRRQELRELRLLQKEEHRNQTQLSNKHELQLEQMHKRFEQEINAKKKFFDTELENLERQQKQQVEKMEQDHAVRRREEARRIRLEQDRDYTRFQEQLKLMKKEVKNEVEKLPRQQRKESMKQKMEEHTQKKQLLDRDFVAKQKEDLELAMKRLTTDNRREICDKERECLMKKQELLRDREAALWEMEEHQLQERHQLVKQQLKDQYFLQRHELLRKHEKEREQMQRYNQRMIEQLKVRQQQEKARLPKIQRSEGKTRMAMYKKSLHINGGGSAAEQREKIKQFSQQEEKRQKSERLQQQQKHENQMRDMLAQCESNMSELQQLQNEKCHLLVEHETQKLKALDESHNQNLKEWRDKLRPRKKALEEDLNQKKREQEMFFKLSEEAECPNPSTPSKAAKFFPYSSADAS
TEK, sequence (Q02763 whole entry): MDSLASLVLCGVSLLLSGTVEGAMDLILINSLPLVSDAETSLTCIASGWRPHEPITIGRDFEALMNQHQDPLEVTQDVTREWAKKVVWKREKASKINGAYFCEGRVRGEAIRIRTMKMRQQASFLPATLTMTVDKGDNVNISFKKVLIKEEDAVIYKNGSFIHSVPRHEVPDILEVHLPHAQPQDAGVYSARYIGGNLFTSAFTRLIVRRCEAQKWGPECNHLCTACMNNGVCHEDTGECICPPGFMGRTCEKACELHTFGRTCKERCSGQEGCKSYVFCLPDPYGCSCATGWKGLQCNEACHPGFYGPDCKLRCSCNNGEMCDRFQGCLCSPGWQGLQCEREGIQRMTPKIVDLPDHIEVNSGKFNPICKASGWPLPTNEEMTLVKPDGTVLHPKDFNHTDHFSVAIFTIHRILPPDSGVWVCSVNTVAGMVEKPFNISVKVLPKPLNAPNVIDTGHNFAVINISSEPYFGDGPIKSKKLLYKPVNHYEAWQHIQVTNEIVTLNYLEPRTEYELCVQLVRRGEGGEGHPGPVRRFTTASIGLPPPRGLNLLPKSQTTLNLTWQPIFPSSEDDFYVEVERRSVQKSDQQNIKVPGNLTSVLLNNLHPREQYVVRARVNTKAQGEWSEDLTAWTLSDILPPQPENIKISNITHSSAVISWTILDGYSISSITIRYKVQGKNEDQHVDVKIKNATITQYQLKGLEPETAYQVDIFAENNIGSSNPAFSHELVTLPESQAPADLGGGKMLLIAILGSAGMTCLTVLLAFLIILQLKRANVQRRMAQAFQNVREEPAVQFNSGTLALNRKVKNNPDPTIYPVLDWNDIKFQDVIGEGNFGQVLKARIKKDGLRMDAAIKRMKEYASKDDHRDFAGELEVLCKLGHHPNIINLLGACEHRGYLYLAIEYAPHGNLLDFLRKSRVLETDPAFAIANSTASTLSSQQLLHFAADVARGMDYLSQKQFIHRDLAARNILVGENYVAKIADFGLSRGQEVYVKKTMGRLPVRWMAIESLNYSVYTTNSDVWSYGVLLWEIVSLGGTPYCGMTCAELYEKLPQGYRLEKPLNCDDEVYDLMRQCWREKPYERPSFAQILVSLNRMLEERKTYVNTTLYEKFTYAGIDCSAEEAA

inhibition at 1 µM (TBK1): -7%
inhibition at 1 µM (CHEK2): 0%
inhibition at 1 µM (CDK5): 1%
inhibition at 1 µM (CAMK2A): 3%
inhibition at 1 µM (STK10): 35%
inhibition at 1 µM (MAP3K21): 3%
inhibition at 1 µM (MAP3K19): 6%
inhibition at 1 µM (PLK3): 4%
inhibition at 1 µM (PAK6): -7%
inhibition at 1 µM (ICK): 3%
inhibition at 1 µM (FLT3): -4%
inhibition at 1 µM (PRKAA1): -1%
inhibition at 1 µM (PRKACB): 5%
inhibition at 1 µM (LCK): 36%
inhibition at 1 µM (CDK10): 8%
inhibition at 1 µM (TEK): 37%
inhibition at 1 µM (ERN1): -3%
inhibition at 1 µM (CSNK1D): -4%
Structure (SMILES): C[C@@H](Oc1cc(-c2cnn(C3CCNCC3)c2)cnc1N)c1c(Cl)ccc(F)c1Cl [crizotinib]
